Experimental data reported in the kinase profiling compilation of Christmann-Franck et al. (2016).

Tests used:
Assay in all cases: KINOMEscan competition binding
Settings in all cases: compound 10.0 µM
ACVR2A (human) = ACVR2A (human) (UniProt P27037)
AURKB (human) = AURKB (human) (UniProt Q96GD4)
CAMK1G (human) = CAMK1G (human) (UniProt Q96NX5)
CDK16 (human) = CDK16 (human) (UniProt Q00536)
CDK19 (human) = CDK19 (human) (UniProt Q9BWU1)
CDK8 (human) = CDK8 (human) (UniProt P49336)
CSNK1G2 (human) = CSNK1G2 (human) (UniProt P78368)
CSNK2A1 (human) = CSNK2A1 (human) (UniProt P68400)
DMPK (human) = DMPK (human) (UniProt Q09013)
EIF2AK2 (human) = EIF2AK2 (human) (UniProt P19525)
[1] = test system: EIF2AK4 KD2 (human), Q9P2K8 [S808G]
EPHB1 (human) = EPHB1 (human) (UniProt P54762)
FGR (human) = FGR (human) (UniProt P09769)
FLT1 (human) = FLT1 (human) (UniProt P17948)
IRAK3 (human) = IRAK3 (human) (UniProt Q9Y616)
[2] = test system: KIT (human), P10721 [V559D]
MAP2K1 (human) = MAP2K1 (human) (UniProt Q02750)
MAP2K2 (human) = MAP2K2 (human) (UniProt P36507)
MAP2K6 (human) = MAP2K6 (human) (UniProt P52564)
MAP4K3 (human) = MAP4K3 (human) (UniProt Q8IVH8)
NEK6 (human) = NEK6 (human) (UniProt Q9HC98)
NEK9 (human) = NEK9 (human) (UniProt Q8TD19)
NTRK2 (human) = NTRK2 (human) (UniProt Q16620)
PAK1 (human) = PAK1 (human) (UniProt Q13153)
PDGFRA (human) = PDGFRA (human) (UniProt P16234)
PIP4K2B (human) = PIP4K2B (human) (UniProt P78356)
PRKAA2 (human) = PRKAA2 (human) (UniProt P54646)
PRKCD (human) = PRKCD (human) (UniProt Q05655)
RIOK2 (human) = RIOK2 (human) (UniProt Q9BVS4)
RIPK2 (human) = RIPK2 (human) (UniProt O43353)
RPS6KA4 KD2 (human) = RPS6KA4 KD2 (human) (UniProt O75676)
SGK110 (human) = SGK110 (human) (UniProt P0C264)
STK17A (human) = STK17A (human) (UniProt Q9UEE5)
STK33 (human) = STK33 (human) (UniProt Q9BYT3)
TTK (human) = TTK (human) (UniProt P33981)
ULK2 (human) = ULK2 (human) (UniProt Q8IYT8)
WEE2 (human) = WEE2 (human) (UniProt P0C1S8)
KDR (human) = KDR (human) (UniProt P35968)
RPS6KA1 KD1 (human) = RPS6KA1 KD1 (human) (UniProt Q15418)
RPS6KA1 KD2 (human) = RPS6KA1 KD2 (human) (UniProt Q15418)

FLT1 (human), sequence (P17948 whole entry, looked up): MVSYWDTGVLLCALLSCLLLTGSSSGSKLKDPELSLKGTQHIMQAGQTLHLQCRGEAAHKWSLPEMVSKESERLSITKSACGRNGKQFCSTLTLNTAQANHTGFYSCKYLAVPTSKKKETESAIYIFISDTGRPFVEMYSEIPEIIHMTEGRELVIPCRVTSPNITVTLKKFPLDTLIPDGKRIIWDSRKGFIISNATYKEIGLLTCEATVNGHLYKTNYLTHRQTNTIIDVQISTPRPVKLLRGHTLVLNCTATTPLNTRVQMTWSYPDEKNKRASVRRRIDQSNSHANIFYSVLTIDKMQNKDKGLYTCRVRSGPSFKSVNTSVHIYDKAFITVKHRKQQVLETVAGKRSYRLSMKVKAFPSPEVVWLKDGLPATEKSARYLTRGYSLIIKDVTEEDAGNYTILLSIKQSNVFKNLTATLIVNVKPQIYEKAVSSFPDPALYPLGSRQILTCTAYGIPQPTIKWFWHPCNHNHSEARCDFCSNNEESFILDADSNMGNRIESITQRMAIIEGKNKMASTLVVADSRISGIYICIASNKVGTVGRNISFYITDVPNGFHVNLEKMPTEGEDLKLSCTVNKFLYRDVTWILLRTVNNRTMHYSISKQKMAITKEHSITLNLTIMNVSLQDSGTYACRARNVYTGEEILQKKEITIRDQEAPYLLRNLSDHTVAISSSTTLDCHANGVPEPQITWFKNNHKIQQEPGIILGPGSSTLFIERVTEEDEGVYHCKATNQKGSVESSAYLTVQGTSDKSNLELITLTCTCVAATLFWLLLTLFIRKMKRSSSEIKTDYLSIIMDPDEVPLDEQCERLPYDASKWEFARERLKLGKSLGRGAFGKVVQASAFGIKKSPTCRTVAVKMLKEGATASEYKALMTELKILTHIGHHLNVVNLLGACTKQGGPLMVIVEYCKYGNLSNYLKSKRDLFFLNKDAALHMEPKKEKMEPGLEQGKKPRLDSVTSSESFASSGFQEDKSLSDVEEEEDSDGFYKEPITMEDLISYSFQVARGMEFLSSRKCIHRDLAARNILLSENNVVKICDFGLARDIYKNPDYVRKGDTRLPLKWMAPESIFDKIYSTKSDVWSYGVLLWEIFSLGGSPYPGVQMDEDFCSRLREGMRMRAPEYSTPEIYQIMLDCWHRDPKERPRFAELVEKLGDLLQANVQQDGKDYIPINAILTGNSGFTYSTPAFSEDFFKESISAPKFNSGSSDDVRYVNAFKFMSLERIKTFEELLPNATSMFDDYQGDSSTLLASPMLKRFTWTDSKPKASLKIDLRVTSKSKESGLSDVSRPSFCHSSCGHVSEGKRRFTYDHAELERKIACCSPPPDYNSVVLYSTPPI
FGR (human), sequence (P09769 whole entry, looked up): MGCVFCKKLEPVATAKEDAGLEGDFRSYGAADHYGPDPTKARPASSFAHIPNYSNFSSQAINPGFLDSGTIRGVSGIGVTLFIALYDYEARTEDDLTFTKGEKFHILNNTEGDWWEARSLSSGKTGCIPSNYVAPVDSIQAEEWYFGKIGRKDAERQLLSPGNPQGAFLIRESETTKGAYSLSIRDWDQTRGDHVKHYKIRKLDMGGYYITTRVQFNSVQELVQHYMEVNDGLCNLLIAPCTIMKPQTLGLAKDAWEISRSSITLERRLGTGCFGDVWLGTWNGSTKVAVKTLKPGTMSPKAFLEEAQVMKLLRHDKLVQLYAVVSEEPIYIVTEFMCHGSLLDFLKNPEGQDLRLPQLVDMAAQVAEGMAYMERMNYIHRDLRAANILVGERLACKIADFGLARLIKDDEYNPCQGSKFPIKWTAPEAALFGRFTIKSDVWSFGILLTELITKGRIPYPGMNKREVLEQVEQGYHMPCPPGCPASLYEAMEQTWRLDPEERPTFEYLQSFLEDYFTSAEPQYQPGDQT
CSNK2A1 (human), sequence (P68400 whole entry, looked up): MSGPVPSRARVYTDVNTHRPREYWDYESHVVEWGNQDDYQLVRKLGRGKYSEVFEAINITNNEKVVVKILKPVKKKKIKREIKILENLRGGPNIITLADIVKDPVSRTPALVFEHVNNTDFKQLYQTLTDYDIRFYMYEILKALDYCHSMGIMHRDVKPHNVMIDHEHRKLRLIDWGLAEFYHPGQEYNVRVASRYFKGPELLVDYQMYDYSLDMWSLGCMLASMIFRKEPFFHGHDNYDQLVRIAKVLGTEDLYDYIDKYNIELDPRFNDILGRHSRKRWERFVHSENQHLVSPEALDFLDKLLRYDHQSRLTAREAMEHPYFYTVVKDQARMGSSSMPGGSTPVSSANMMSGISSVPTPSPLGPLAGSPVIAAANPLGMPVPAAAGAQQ
RIOK2 (human), sequence (Q9BVS4 whole entry, looked up): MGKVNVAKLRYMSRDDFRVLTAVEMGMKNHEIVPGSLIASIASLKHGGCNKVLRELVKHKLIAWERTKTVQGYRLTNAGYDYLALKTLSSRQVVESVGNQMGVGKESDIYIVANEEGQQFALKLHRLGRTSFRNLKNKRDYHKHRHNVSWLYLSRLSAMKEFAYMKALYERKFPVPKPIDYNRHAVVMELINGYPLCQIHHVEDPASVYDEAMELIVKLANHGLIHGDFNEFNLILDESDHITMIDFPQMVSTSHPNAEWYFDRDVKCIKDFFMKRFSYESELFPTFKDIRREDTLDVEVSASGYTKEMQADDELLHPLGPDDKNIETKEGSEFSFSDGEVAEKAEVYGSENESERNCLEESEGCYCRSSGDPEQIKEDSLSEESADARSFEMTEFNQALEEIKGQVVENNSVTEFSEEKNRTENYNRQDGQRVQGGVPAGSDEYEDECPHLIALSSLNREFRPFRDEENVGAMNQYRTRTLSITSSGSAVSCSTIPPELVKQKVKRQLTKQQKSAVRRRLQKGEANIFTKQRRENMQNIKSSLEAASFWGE
RIPK2 (human), sequence (O43353 whole entry, looked up): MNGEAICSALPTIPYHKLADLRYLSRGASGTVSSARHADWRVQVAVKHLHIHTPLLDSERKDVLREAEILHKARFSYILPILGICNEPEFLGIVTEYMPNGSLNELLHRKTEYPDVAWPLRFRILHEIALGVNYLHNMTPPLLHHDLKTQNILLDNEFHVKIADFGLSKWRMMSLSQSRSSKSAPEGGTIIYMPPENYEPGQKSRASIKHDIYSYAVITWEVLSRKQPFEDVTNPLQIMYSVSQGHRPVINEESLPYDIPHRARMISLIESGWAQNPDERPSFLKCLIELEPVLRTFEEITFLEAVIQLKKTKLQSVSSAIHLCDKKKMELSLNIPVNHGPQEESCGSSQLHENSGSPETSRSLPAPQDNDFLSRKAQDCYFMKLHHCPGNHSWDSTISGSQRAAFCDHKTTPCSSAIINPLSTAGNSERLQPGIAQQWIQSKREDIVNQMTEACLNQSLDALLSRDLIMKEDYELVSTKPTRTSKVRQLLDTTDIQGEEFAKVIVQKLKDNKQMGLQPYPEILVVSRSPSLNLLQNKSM
EIF2AK2 (human), sequence (P19525 whole entry, looked up): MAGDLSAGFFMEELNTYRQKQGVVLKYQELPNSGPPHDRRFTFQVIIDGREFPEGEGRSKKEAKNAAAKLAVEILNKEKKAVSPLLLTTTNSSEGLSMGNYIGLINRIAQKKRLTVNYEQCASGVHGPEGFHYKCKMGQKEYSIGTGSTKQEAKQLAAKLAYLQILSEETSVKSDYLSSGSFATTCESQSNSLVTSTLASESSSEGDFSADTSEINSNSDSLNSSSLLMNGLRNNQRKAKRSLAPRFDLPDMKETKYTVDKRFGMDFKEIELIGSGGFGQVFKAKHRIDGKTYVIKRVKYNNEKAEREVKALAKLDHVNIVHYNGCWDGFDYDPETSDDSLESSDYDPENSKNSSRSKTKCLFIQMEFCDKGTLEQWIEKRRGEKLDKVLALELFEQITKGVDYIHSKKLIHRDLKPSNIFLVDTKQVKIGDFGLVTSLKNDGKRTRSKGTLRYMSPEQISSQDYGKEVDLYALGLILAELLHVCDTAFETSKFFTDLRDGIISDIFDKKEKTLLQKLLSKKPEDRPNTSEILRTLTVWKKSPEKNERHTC
EPHB1 (human), sequence (P54762 whole entry, looked up): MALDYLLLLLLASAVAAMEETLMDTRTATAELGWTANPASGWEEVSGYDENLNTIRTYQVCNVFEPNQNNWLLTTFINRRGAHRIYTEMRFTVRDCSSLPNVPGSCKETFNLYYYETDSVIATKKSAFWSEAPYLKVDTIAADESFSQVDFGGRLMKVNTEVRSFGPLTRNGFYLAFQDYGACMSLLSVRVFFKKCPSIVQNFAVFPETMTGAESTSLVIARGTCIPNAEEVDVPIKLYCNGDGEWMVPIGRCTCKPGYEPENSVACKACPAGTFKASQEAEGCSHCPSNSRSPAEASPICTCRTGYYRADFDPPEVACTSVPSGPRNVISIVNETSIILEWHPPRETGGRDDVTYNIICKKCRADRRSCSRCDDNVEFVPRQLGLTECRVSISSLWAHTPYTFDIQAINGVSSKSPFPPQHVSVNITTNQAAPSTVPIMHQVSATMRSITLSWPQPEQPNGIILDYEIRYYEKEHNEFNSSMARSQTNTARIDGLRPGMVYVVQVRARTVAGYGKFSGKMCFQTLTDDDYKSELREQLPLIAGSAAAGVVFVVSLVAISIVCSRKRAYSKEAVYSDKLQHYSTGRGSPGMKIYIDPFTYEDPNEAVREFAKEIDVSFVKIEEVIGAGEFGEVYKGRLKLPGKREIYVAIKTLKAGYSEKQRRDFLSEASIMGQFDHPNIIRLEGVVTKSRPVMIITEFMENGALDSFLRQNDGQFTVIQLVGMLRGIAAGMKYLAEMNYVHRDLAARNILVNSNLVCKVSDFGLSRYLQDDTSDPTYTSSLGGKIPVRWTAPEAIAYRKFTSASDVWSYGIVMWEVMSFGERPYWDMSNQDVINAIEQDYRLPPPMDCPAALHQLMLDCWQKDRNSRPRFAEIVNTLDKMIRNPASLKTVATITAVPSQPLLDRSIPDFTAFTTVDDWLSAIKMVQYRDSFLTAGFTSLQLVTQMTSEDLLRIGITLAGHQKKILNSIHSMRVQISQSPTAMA

| Structure (SMILES) | kinase still bound, per cent of control (ACVR2A (human)) [%] | kinase still bound, per cent of control (AURKB (human)) [%] | kinase still bound, per cent of control (CAMK1G (human)) [%] | kinase still bound, per cent of control (CDK19 (human)) [%] | kinase still bound, per cent of control (CDK8 (human)) [%] | kinase still bound, per cent of control (CSNK2A1 (human)) [%] | kinase still bound, per cent of control (DMPK (human)) [%] | kinase still bound, per cent of control (EIF2AK2 (human)) [%] | kinase still bound, per cent of control [1] [%] | kinase still bound, per cent of control (EPHB1 (human)) [%] | kinase still bound, per cent of control (FGR (human)) [%] | kinase still bound, per cent of control (FLT1 (human)) [%] | kinase still bound, per cent of control (IRAK3 (human)) [%] | kinase still bound, per cent of control [2] [%] | kinase still bound, per cent of control (MAP2K1 (human)) [%] | kinase still bound, per cent of control (MAP2K2 (human)) [%] | kinase still bound, per cent of control (MAP2K6 (human)) [%] | kinase still bound, per cent of control (MAP4K3 (human)) [%] | kinase still bound, per cent of control (NEK6 (human)) [%] | kinase still bound, per cent of control (NEK9 (human)) [%] | also measured |
| --- | --- | --- | --- | --- | --- | --- | --- | --- | --- | --- | --- | --- | --- | --- | --- | --- | --- | --- | --- | --- | --- |
| O=C(O)c1ccc(Nc2ncc3c(n2)-c2ccc(Cl)cc2C(c2c(F)cccc2F)=NC3)cc1 | 95 | 0.3 | 79 | 96 | 100 | 29 | 79 | 100 | 79 | 2.2 | 7.6 | 12 | 15 | 63 | 86 | 99 | 72 | 97 | 100 | 100 | kinase still bound, per cent of control (CDK16 (human)): 100%; kinase still bound, per cent of control (CSNK1G2 (human)): 66%; kinase still bound, per cent of control (NTRK2 (human)): 30%; kinase still bound, per cent of control (PAK1 (human)): 80%; kinase still bound, per cent of control (PDGFRA (human)): 56%; kinase still bound, per cent of control (PIP4K2B (human)): 100%; kinase still bound, per cent of control (PRKAA2 (human)): 67%; kinase still bound, per cent of control (PRKCD (human)): 100%; kinase still bound, per cent of control (RIOK2 (human)): 99%; kinase still bound, per cent of control (RIPK2 (human)): 97%; kinase still bound, per cent of control (RPS6KA4 KD2 (human)): 100%; kinase still bound, per cent of control (SGK110 (human)): 58%; kinase still bound, per cent of control (STK17A (human)): 1.9%; kinase still bound, per cent of control (STK33 (human)): 100%; kinase still bound, per cent of control (TTK (human)): 63%; kinase still bound, per cent of control (ULK2 (human)): 100%; kinase still bound, per cent of control (WEE2 (human)): 89% |
| Cc1ccc2nc(NCCN)c3ncc(C)n3c2c1 | 92 | 67 | 88 | 100 | 100 | 33 | 100 | 100 | 98 | 100 | 100 | 98 | 72 | 23 | 100 | 77 | 88 | 80 | 100 | 100 | kinase still bound, per cent of control (CSNK1G2 (human)): 97%; kinase still bound, per cent of control (KDR (human)): 100%; kinase still bound, per cent of control (NTRK2 (human)): 89%; kinase still bound, per cent of control (PAK1 (human)): 100%; kinase still bound, per cent of control (PIP4K2B (human)): 100%; kinase still bound, per cent of control (PRKAA2 (human)): 100%; kinase still bound, per cent of control (PRKCD (human)): 100%; kinase still bound, per cent of control (RIOK2 (human)): 79%; kinase still bound, per cent of control (RIPK2 (human)): 100%; kinase still bound, per cent of control (RPS6KA1 KD1 (human)): 79%; kinase still bound, per cent of control (RPS6KA1 KD2 (human)): 46%; kinase still bound, per cent of control (RPS6KA4 KD2 (human)): 15%; kinase still bound, per cent of control (SGK110 (human)): 100%; kinase still bound, per cent of control (STK17A (human)): 68%; kinase still bound, per cent of control (STK33 (human)): 73%; kinase still bound, per cent of control (TTK (human)): 100%; kinase still bound, per cent of control (ULK2 (human)): 100%; kinase still bound, per cent of control (WEE2 (human)): 100% |
| CCOc1cc2ncc(C#N)c(Nc3ccc(OCc4ccccn4)c(Cl)c3)c2cc1NC(=O)/C=C/CN(C)C | 100 | 75 | 100 | 100 | 100 | 94 | 98 | 100 | 1.4 | 98 | 40 | 95 | 85 | 100 | 0.4 | 0.5 | 100 | 2.1 | 88 | 100 | kinase still bound, per cent of control (KDR (human)): 94%; kinase still bound, per cent of control (NTRK2 (human)): 95%; kinase still bound, per cent of control (PAK1 (human)): 16%; kinase still bound, per cent of control (PDGFRA (human)): 100%; kinase still bound, per cent of control (PIP4K2B (human)): 95%; kinase still bound, per cent of control (PRKAA2 (human)): 80%; kinase still bound, per cent of control (PRKCD (human)): 100%; kinase still bound, per cent of control (RIOK2 (human)): 53%; kinase still bound, per cent of control (RIPK2 (human)): 98%; kinase still bound, per cent of control (RPS6KA1 KD1 (human)): 57%; kinase still bound, per cent of control (RPS6KA1 KD2 (human)): 85%; kinase still bound, per cent of control (RPS6KA4 KD2 (human)): 94%; kinase still bound, per cent of control (SGK110 (human)): 100%; kinase still bound, per cent of control (STK17A (human)): 37%; kinase still bound, per cent of control (STK33 (human)): 42%; kinase still bound, per cent of control (TTK (human)): 100%; kinase still bound, per cent of control (ULK2 (human)): 100%; kinase still bound, per cent of control (WEE2 (human)): 98% |
| CC[C@@H]1C(=O)N(C)c2cnc(Nc3ccc(C(=O)NC4CCN(C)CC4)cc3OC)nc2N1C1CCCC1 | 100 | 100 | 100 | 100 | 100 | 100 | 100 | 100 | 100 | 100 | 100 | 100 | 100 | 100 | 100 | 100 | 100 | 100 | 100 | 100 | kinase still bound, per cent of control (CDK16 (human)): 100%; kinase still bound, per cent of control (NTRK2 (human)): 100%; kinase still bound, per cent of control (PAK1 (human)): 100%; kinase still bound, per cent of control (PDGFRA (human)): 100%; kinase still bound, per cent of control (PIP4K2B (human)): 100%; kinase still bound, per cent of control (PRKAA2 (human)): 100%; kinase still bound, per cent of control (PRKCD (human)): 100%; kinase still bound, per cent of control (RIOK2 (human)): 100%; kinase still bound, per cent of control (RIPK2 (human)): 100%; kinase still bound, per cent of control (RPS6KA1 KD1 (human)): 100%; kinase still bound, per cent of control (RPS6KA1 KD2 (human)): 21%; kinase still bound, per cent of control (RPS6KA4 KD2 (human)): 0%; kinase still bound, per cent of control (SGK110 (human)): 100%; kinase still bound, per cent of control (STK17A (human)): 100%; kinase still bound, per cent of control (STK33 (human)): 14%; kinase still bound, per cent of control (TTK (human)): 6.3%; kinase still bound, per cent of control (ULK2 (human)): 100%; kinase still bound, per cent of control (WEE2 (human)): 100% |
